These compounds were tested against T1, c-kit (Homo sapiens, UniProt P10721) (assay: Mo7e cell proliferation assay (SCF dependent proliferation)). Conditions: Table 1; human Mo7e cells stimulated with human recombinant SCF, 48 h, CellTiter Glo; 1% FBS (footnote).
T1 construct: human Mo7e cells which endogenously express c-kit; endogenous in cells; host or cells: human Mo7e cells (SCF-dependent promegakaryocytic leukemia line)
Format: cell-based
Outline: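 SCF-dependent proliferation of human Mo7e cells, which express c-kit endogenously, was measured after 48 h at 37° C by CellTiter Glo luminescence. IC50 was taken as the concentration giving a response halfway between the baseline and maximum responses.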

T1 sequence (P10721 26-976): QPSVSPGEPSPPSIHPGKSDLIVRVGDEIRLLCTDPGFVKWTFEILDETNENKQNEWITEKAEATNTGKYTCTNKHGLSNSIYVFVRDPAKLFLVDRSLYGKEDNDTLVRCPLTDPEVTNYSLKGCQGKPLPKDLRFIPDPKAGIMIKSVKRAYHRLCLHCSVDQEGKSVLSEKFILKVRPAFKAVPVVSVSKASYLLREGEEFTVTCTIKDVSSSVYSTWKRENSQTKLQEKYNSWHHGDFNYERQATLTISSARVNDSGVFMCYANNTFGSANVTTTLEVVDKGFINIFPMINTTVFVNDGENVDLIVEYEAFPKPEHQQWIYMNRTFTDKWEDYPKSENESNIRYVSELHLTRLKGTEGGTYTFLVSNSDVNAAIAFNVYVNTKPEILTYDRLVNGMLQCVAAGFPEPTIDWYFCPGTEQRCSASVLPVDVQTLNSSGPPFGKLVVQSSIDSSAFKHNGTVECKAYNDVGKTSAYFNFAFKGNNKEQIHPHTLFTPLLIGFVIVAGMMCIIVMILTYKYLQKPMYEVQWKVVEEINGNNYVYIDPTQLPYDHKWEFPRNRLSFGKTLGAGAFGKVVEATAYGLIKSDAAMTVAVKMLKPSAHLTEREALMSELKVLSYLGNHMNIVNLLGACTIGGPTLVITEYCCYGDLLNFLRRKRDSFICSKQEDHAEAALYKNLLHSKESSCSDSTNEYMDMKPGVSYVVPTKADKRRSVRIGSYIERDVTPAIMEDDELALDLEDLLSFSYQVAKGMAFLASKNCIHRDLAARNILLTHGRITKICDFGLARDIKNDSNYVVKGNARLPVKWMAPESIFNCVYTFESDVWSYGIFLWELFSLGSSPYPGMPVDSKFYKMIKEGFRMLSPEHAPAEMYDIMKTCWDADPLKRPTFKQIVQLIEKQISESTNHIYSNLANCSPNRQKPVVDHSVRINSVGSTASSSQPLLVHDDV

Point of comparison: `CC(=O)c1sc(-c2ccc3ncc(C(=O)Nc4cc(-c5noc(C)n5)ccc4C)n3c2)nc1C` [F256, 6-(5-acetyl-4-methylthiazol-2-yl)-N-(2-methyl-5-(5-methyl-1,2,4-oxadiazol-3-yl)phenyl)imidazo[1,2-a]pyridine-3-carboxamide], IC50 54 nM. Against it:
- Cc1nc(-c2ccc(C)c(NC(=O)c3cnc4ccc(-c5c(C)nn(CCO)c5C)cn34)c2)no1 [F255, 6-(1-(2-hydroxyethyl)-3,5-dimethyl-1H-pyrazol-4-yl)-N-(2-methyl-5-(5-methyl-1,2,4-oxadiazol-3-yl)phenyl)imidazo[1,2-a]pyridine-3-carboxamide] — 3.4-fold lower, 16 nM
- Cc1nc(-c2ccc(C)c(NC(=O)c3cnc4ccc(-c5c[nH]nc5C)cn34)c2)no1 [F257, 6-(3-methyl-1H-pyrazol-4-yl)-N-(2-methyl-5-(5-methyl-1,2,4-oxadiazol-3-yl)phenyl)imidazo[1,2-a]pyridine-3-carboxamide] — 2.8-fold lower, 19 nM
- CNC(=O)c1sc(-c2ccc3ncc(C(=O)Nc4cc(-c5noc(C)n5)ccc4C)n3c2)nc1C [F258, N,4-dimethyl-2-(3-((2-methyl-5-(5-methyl-1,2,4-oxadiazol-3-yl)phenyl)carbamoyl)imidazo[1,2-a]pyridin-6-yl)thiazole-5-carboxamide] — within 1.5-fold, 65 nM
- Cc1nc(-c2ccc(C)c(NC(=O)c3cnc4ccc(-c5nc(C)c(C(N)=O)s5)cn34)c2)no1 [F259, 4-methyl-2-(3-((2-methyl-5-(5-methyl-1,2,4-oxadiazol-3-yl)phenyl)carbamoyl)imidazo[1,2-a]pyridin-6-yl)thiazole-5-carboxamide] — 1.6-fold higher, 89 nM
- CNC(=O)Cn1nc(C)c(-c2ccc3ncc(C(=O)Nc4cc(-c5noc(C)n5)ccc4C)n3c2)c1C [F260, 6-(3,5-dimethyl-1-(2-(methylamino)-2-oxoethyl)-1H-pyrazol-4-yl)-N-(2-methyl-5-(5-methyl-1,2,4-oxadiazol-3-yl)phenyl)imidazo[1,2-a]pyridine-3-carboxamide] — 1.7-fold lower, 32 nM
- CCOC(=O)c1nc(C)c(-c2ccc3ncc(C(=O)Nc4cc(-c5noc(C)n5)ccc4C)n3c2)s1 [F261, ethyl 4-methyl-5-(3-((2-methyl-5-(5-methyl-1,2,4-oxadiazol-3-yl)phenyl)carbamoyl)imidazo[1,2-a]pyridin-6-yl)thiazole-2-carboxylate] — 1.5-fold higher, 83 nM
- Cc1nc(-c2ccc(C)c(NC(=O)c3cnc4ccc(-c5sc(C(=O)NCCN6CCOCC6)nc5C)cn34)c2)no1 [F262, 4-methyl-5-(3-((2-methyl-5-(5-methyl-1,2,4-oxadiazol-3-yl)phenyl)carbamoyl)imidazo[1,2-a]pyridin-6-yl)-N-(2-morpholinoethyl)thiazole-2-carboxamide] — within 1.5-fold, 75 nM
- Cc1nc(-c2ccc(C)c(NC(=O)c3cnc4ccc(-c5sc(C(=O)NCCO)nc5C)cn34)c2)no1 [F263, N-(2-hydroxyethyl)-4-methyl-5-(3-((2-methyl-5-(5-methyl-1,2,4-oxadiazol-3-yl)phenyl)carbamoyl)imidazo[1,2-a]pyridin-6-yl)thiazole-2-carboxamide] — within 1.5-fold, 58 nM
- Cc1nc(-c2ccc(C)c(NC(=O)c3cnc4ccc(-c5sc(C(N)=O)nc5C)cn34)c2)no1 [F264, 4-methyl-5-(3-((2-methyl-5-(5-methyl-1,2,4-oxadiazol-3-yl)phenyl)carbamoyl)imidazo[1,2-a]pyridin-6-yl)thiazole-2-carboxamide] — within 1.5-fold, 38 nM
- Cc1nc(-c2ccc(C)c(NC(=O)c3cnc4ccc(-c5sc(CO)nc5C)cn34)c2)no1 [F265, 6-(2-(hydroxymethyl)-4-methylthiazol-5-yl)-N-(2-methyl-5-(5-methyl-1,2,4-oxadiazol-3-yl)phenyl)imidazo[1,2-a]pyridine-3-carboxamide] — 6.8-fold lower, 8 nM
- Cc1ccc(-c2noc(C(C)OCC(F)(F)F)n2)cc1NC(=O)c1cnc2ccccn12 (centres unmarked) [F266] — 4.9-fold lower, 11 nM
- Cc1ccn2c(C(=O)Nc3cc(-c4noc(CCC(C)(OC(=O)[C@H](C)N)C(F)(F)F)n4)ccc3C)cnc2c1 (stereo partly drawn) [F271, (2S)-1,1,1-trifluoro-2-methyl-4-(3-(4-methyl-3-(7-methylimidazo[1,2-a]pyridine-3-carboxamido)phenyl)-1,2,4-oxadiazol-5-yl)butan-2-yl 2-aminopropanoate] — 6.8-fold lower, 8 nM
- (S)-1,1,1-trifluoro-2-methyl-4-(3-(4-methyl-3-(7-methylimidazo[1,2-a]pyridine-3-carboxamido)phenyl)-1,2,4-oxadiazol-5-yl)butan-2-yl dihydrouen phosphate [F268] — 2.1-fold lower, 26 nM

Source: US20150011508A1, “COMPOUNDS AND COMPOSITIONS AS C-KIT KINASE INHIBITORS” (priority 2011, published 2015)
